This passage reports IC50 and Activity results from ChEMBL document CHEMBL3608280, “Tetramic Acids and Pyridone Alkaloids from the Endolichenic Fungus Tolypocladium cylindrosporum” (J Nat Prod, 2015).

Assay [1] concerns A549. Description: Cytotoxicity against human A549 cells assessed as growth inhibition after 48 hrs by MTT assay. Type of assay: functional, cell-based. The note with it: A549, 48 h.
Another assay has as its system A2780. Description: Cytotoxicity against human A2780 cells assessed as growth inhibition after 48 hrs by MTT assay. Type of assay: functional, cell-based. The note with it: A2780, 48 h. (In general: Formazan colour is commonly taken as a measure of viable cells.)
A further assay deals with K562. In words: Cytotoxicity against human K562 cells assessed as growth inhibition after 48 hrs by MTT assay. In kind it is functional, cell-based. The note with it: K562, 48 h.
The test system of a further assay is MDA-MB-231. In words: Cytotoxicity against human MDA-MB-231 cells assessed as growth inhibition after 48 hrs by MTT assay. Type of assay: functional, cell-based. The note with it: MDA-MB-231, 48 h.
Assay [2] relates to A549. In words: Induction of apoptosis in human A549 cells assessed as dead cells at 2 uM after 48 hrs by annexin V-FITC/propidium iodide staining-based flow cytometric analysis (reference value: 0.43%). In kind it is functional. On the technique in general: Flow cytometry measures light scatter and fluorescence of single cells or particles in a stream.
In assay [3] the test system is A549. In words: Induction of apoptosis in human A549 cells after 48 hrs by annexin V-FITC/propidium iodide staining-based flow cytometric analysis. Type of assay: functional, cell-based.
The test system of assay [4] is A549. In words: Cell cycle arrest in human A549 cells assessed as accumulation at G0/G1 phase after 24 hrs by propidium iodide staining-based flow cytometric analysis. Type of assay: functional.
The subject of assay [5] is A549. In words: Induction of apoptosis in human A549 cells assessed as dead cells at 1 uM after 48 hrs by annexin V-FITC/propidium iodide staining-based flow cytometric analysis (reference value: 0.43%). Type of assay: functional.
Assay [6] relates to A549. Description: Induction of apoptosis in human A549 cells assessed as early apoptotic cells at 2 uM after 48 hrs by annexin V-FITC/propidium iodide staining-based flow cytometric analysis (reference value: 0.86%). In kind it is functional.
Assay [7] has as its system A549. In words: Cell cycle arrest in human A549 cells assessed as accumulation at G2/M phase at 2 uM after 24 hrs by propidium iodide staining-based flow cytometric analysis (reference value: 10.29%). In kind it is functional.
The subject of assay [8] is A549. Description: Induction of apoptosis in human A549 cells assessed as late apoptotic cells at 1 uM after 48 hrs by annexin V-FITC/propidium iodide staining-based flow cytometric analysis (reference value: 3.94%). In kind it is functional.
For assay [9], the system named is A549. Description: Cell cycle arrest in human A549 cells assessed as accumulation at G1 phase at 1 uM after 24 hrs by propidium iodide staining-based flow cytometric analysis (reference value: 52.73%). Type of assay: functional.
Assay [10] concerns A549. In words: Cell cycle arrest in human A549 cells assessed as accumulation at G1 phase at 2 uM after 24 hrs by propidium iodide staining-based flow cytometric analysis (reference value: 52.73%). Type of assay: functional.
In assay [11] the test system is A549. In words: Cell cycle arrest in human A549 cells assessed as accumulation at S phase at 2 uM after 24 hrs by propidium iodide staining-based flow cytometric analysis (reference value: 36.98%). Type of assay: functional.
Assay [12] deals with A549. Description: Induction of apoptosis in human A549 cells assessed as early apoptotic cells at 1 uM after 48 hrs by annexin V-FITC/propidium iodide staining-based flow cytometric analysis (reference value: 0.86%). In kind it is functional.
For assay [13], the system named is A549. Description: Cell cycle arrest in human A549 cells assessed as accumulation at S phase at 1 uM after 24 hrs by propidium iodide staining-based flow cytometric analysis (reference value: 36.98%). In kind it is functional.
For assay [14], the system named is A549. Description: Cell cycle arrest in human A549 cells assessed as accumulation at G2/M phase at 1 uM after 24 hrs by propidium iodide staining-based flow cytometric analysis (reference value: 10.29%). Type of assay: functional.
In assay [15] the test system is A549. In words: Induction of apoptosis in human A549 cells assessed as late apoptotic cells at 2 uM after 48 hrs by annexin V-FITC/propidium iodide staining-based flow cytometric analysis (reference value: 3.94%). In kind it is functional.

Molecules are shown by their SMILES.

For orientation: IC50 means the concentration needed to halve the response being measured. Take `CC1Oc2c(-c3ccc(O)cc3)c[nH]c(=O)c2[C@@H]2[C@@H](C)C[C@@H](C)C[C@@H]12` (stereo partly drawn): the half-maximal inhibitory concentration (IC50) in the assay on A549 [1], in the assay with A2780, in the assay on K562 and in the assay on MDA-MB-231 was over 40 µM in each case.
`C=C[C@@H]1C[C@H](C)C[C@H](C)C1c1c(O)ccn(O)c1=O` (stereo partly drawn): the Activity in the assay with A549 [2] is 5.41%; in the assay on A549 [3], “Dose-dependent effect”; in the assay with A549 [4] it was “Dose-dependent effect”; in the assay with A549 [5] it was 4.25%; with A549 [6], 1.06%; in the assay with A549 [7], 1.35%. The Activity with A549 [8] came to 21.94%; with A549 [9], 78.16%; in the assay with A549 [10] it was 82.63%; in the assay on A549 [11], 16.02%; in the assay on A549 [12] it was 3%; in the assay with A549 [13], 17.49%. For the same molecule, the values for the Activity with A549 [14] and in the assay on A549 [15] were 4.35% and 28.3%, respectively. The IC50 was found to be 1.24 µM in the assay with A549 [1], 1.36 µM with A2780, 1.83 µM with K562 and 1.63 µM in the assay with MDA-MB-231.
For the molecule `Cc1cc(O)c2oc(=O)c(O)c(-c3ccc(O)cc3)c2c1`, the IC50 with A549 [1], in the assay on A2780, in the assay on K562 and in the assay with MDA-MB-231 was over 40 µM in each case.
As for `COc1cccc2c1C(=O)c1c(O)c3c(c(O)c1C2=O)C[C@@](O)(C(=O)CO)C[C@@H]3O[C@H]1C[C@H](N)[C@H](O)[C@H](C)O1` [DOXORUBICIN], the IC50 was 0.51 µM in the assay on A549 [1], 0.6 µM in the assay on A2780 and 1.1 µM in the assay with K562.
As for `C/C=C\C[C@H](C)C[C@H](C)/C(O)=C1/C(=O)N[C@@H]([C@@H](O)c2ccc(O)cc2)C1=O`, the IC50 with A549 [1], in the assay on A2780, in the assay on K562 and in the assay on MDA-MB-231 was over 40 µM each time.
As to `CC(C)(O)[C@@H]1C[C@@H](O)[C@]2(C)[C@H](CC[C@@]3(C)[C@H]2CC[C@H]2Cc4c([nH]c5ccccc45)[C@@]23C)O1` [TERPENDOLE E], the IC50 turned out to be 18.8 µM with A549 [1], 31.1 µM in the assay on A2780, 38.7 µM in the assay on K562 and 39.2 µM with MDA-MB-231.
For `C/C=C\C[C@H](C)C[C@H](C)/C(O)=C1/C(=O)N[C@H]([C@H](O)c2ccc(O)cc2)C1=O` the same measures were over 40 µM, over 40 µM, over 40 µM and over 40 µM.
With `C=C[C@@H]1C[C@H](C)C[C@H](C)C1c1c(O)cc[nH]c1=O` (stereo partly drawn), the IC50 with A549 [1], in the assay with A2780, in the assay on K562 and in the assay on MDA-MB-231 was over 40 µM in each case.
For `C/C=C\C[C@@H](C)C[C@@H](C)/C(O)=C1/C(=O)N/C(=C\c2ccc(O)cc2)C1=O`, the IC50 in the assay with A549 [1], with A2780, in the assay with K562 and in the assay with MDA-MB-231 was over 40 µM throughout.
As for `C/C=C\C[C@H](C)C[C@H](C)/C(O)=C1/C(=O)N/C(=C\c2ccc(O)cc2)C1=O`, the IC50 in the assay with A549 [1], in the assay with A2780, with K562 and with MDA-MB-231 was over 40 µM throughout.
